Active and inactive are the calls of the source.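 How the source made its calls: active means compounds giving half or more protection of infected cells from virus-caused growth loss, again on retest; inactive means the rest.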 *1 amine or outer side, *2 acyl side, *3 side chain or, on linkers, in order; H or OH if unused. Where a SMILES comes first, the peptide text is derived from it. [ ]: non-standard residue; d: D form. The star is where a group is joined. X3 = CC(=O)N(C)SCC(N[*:1])C(=O)[*:2]; X20 = CC(=O)N(C)SCC(N*)/C(O)=N\O; Cbz = O=C(OCc1ccccc1)*; Bn = c1ccc(C*)cc1; For = O=C*

This assay deals with CEM cells HIV-1 protection, formazan growth assay. Kind of assay: NCI AIDS Antiviral Assay. The conditions noted are these: for IC50: measured here: growth of uninfected CEM cells. The method in brief:
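Human CEM cells, uninfected and HIV-1-infected, exposed to five drug concentrations; growth measured by soluble formazan assay and scored as percent protection from infection, with protecting compounds retested.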

Take `O=C(O)C1(C(O)c2ccccc2)SCCCS1` (stereo not given): the EC50 (in general, the concentration that produces a half-maximal response) was above 200 µM and the IC50 (as a rule, the concentration at which inhibition is half-maximal) was above 200 µM.
`COc1ccc2c3csc4ccccc4c-3nc2c1`: the EC50 is above 200 µM and the IC50 amounted to 0.427 µM.
For `CC1(c2cc(Cl)c(Cl)cc2Cl)NC(=O)NC1=O` (stereo not given), the outcome was inactive.
Same read-out and setting: the result for `Cc1nn(C(=O)c2ccc(Cl)cc2)c2c1C(c1ccccc1)SC(N)=N2` (stereo not given) reads “inactive”.
As for `C[C@]12CCC(=O)C=C1CC[C@H]1[C@@H]3CC[C@@]4(OCC4=O)[C@@]3(C)C[C@H](O)[C@@]12F`, the EC50 is above 123 µM and the IC50 was above 123 µM.
With `COc1ccc2c(=O)c(O)c(-c3ccccc3)oc2c1`, the EC50 was above 66.1 µM and the IC50 is 12.3 µM.
As to `CC1(C)OC(=O)N(c2ccccc2)C12C=Cc1cc([N+](=O)[O-])cc([N+](=O)[O-])c1O2` (stereo not given), the EC50 is above 200 µM and the concentration for half-maximal inhibition (IC50) amounted to 117 µM.
Taken in the same sequence, the figures for `COP(C)(=O)/C(Cc1ccccc1)=N\O` (stereo not given) were above 200 µM and above 200 µM.
In the same order, the values of `CCOC(=O)C12OC(CCC1=O)C(C(=O)OC)=C2C(=O)OC` (stereo not given) are above 200 µM and above 200 µM.
For the compound `CC(=N)OC1CC2CCC1(C)C2(C)C` (stereo not given), the EC50 is above 200 µM and the IC50 is above 200 µM.
As to `O=C1/C(=C/c2ccc3c(c2)OCO3)CCC/C1=C\c1ccc2c(c1)OCO2`, the EC50 is above 7.59 µM and the concentration for half-maximal inhibition (IC50) is above 7.59 µM.
For the compound `CC(=O)N(C)SCC(NC(=O)C(Cc1ccccc1)NC(=O)OCc1ccccc1)C(=O)NC(Cc1ccccc1)C(=O)NC(Cc1cn(C=O)c2ccccc12)C(=O)NC(CCCCNC(=O)OCc1ccccc1)C(=O)NC(C(=O)NC(CSN(C)C(C)=O)/C(O)=N\O)C(C)OCc1ccccc1` (stereo not given) (Cbz-F[X3]FW(For)K(Cbz)T(Bn)-X20; configuration not given here), the outcome was inactive.
Regarding `O=C(O)C(=O)/C=C\c1ccc(Cl)cc1`, the EC50 was above 617 µM and the IC50 turned out to be 191 µM.
For `O=C1CC(c2[nH]nc3ccccc23)C(=O)N1c1ccccc1` (stereo not given), the outcome was inactive.
For the compound `COc1ccc(/C=N/NC(=O)c2ccccc2Nc2ccccc2C(=O)N/N=C/c2ccc(OC)cc2)cc1`, the EC50 was above 102 µM and the concentration for half-maximal inhibition (IC50) came to 85.1 µM.
Consider `COc1cc2cc[n+]3c4cc(OC)c(OC)cc4c(C)cc3c2cc1OC`, for which the outcome was inactive.
For the compound `O=C(O)c1ccccc1/C=N/NC1=NCCN1`, the EC50 was above 200 µM and the IC50 was 85.1 µM.
Taken in the same sequence, the figures for `O=C1c2ccccc2CCC1(Br)C(Br)c1ccccc1` (stereo not given) were above 200 µM and 5.37 µM.
Turning to `Cc1cn(C2CC(N)C(CN)O2)c(=O)[nH]c1=O` (stereo not given), the EC50 was above 200 µM and the IC50 is above 200 µM.
With `COC(=O)C1(C(=O)OC)CC(=O)c2c(OC(=O)c3cccc(OC)c3C#N)ccc(OC(=O)c3cccc(OC)c3C#N)c2C1`, the EC50 was above 200 µM and the IC50 was 29.5 µM.
With `COC(=O)C(=Cc1cc(OC)c(OC)c(OC)c1-c1cc2c(cc1C1(C)OCCS1)OCO2)C(=O)OC` (stereo not given), the EC50 was above 18.6 µM and the 50% inhibitory concentration (IC50) was 15.5 µM.
Taken in the same sequence, the figures for `S=C1SC(=Nc2ccccc2)C(=Nc2ccccc2)N1c1ccccc1` were above 200 µM and 91.2 µM.
In the same order, the values of `CCCC(N)S(=O)(=O)O` (stereo not given) are above 200 µM and above 200 µM.
As to `O=C(OC[C@H]1OCC(=O)C2(OC(=O)c3ccccc3)C3C=CC(C3)C12)c1ccccc1` (stereo not given in full), the outcome was inactive.
`CC(=O)OC1COC(n2c(=S)n(-c3ccc(C)cc3)c(=O)c3ccccc32)C(OC(C)=O)C1OC(C)=O` (stereo not given): the EC50 was above 25.7 µM and the IC50 is above 25.7 µM.
For `Cc1ccccc1NC(=O)C(=O)CC(=O)c1c(C)n([O-])c2ccccc2[n+]1=O`, the EC50 is above 3.8 µM and the IC50 is above 3.8 µM.
As to `N=c1nnc(=O)c2c(s1)-n1ncc(C(=O)O)c1NN2`, the EC50 is above 81.3 µM and the IC50 was above 81.3 µM.
Regarding `Cc1ccc(S(=O)(=O)NC2C(=O)c3ccccc3C(=O)C2n2ccnc2)cc1` (stereo not given), the EC50 is above 200 µM and the IC50 is 87.1 µM.

The record behind these values is PubChem BioAssay AID179 (DTP/NCI, 2004).
